Laboratory results reported in paper PMC9827864, “In Situ Inhibitor Synthesis and Screening by Fluorescence Polarization: An Efficient Approach for Accelerating Drug Discovery” (Angewandte Chemie (International Ed. in English), 2022).

Key:
[1] = target: T1, human prolyl hydroxylase 2 (PHD2) (Homo sapiens, UniProt Q9GZT9); assay: Fluorescence polarization (FP) competition assay of PHD2; settings: purified compounds, 20 nM PHD2 (181-426), 30 nM probe, Cheng-Prusoff, mean±SD, read-out: Ki, binding affinity for PHD2
T1 construct: (181-426); made in house
Description: 2.1 Fluorescence polarization (FP) competition assay of PHD2 [4]
FP assays were performed using a SPARK Multi-Mode Microplate Reader (Tecan) with excitation and emission filters appropriate for the fluorophore used in the binding experiment. Fluorescence polarization experiments were performed in 384-well, flat bottom, black assay plates (#3575, Corning) in a final volume of 60 µL. The final assay buffer contained: 30 nM fluorescence Probe, 20 nM PHD2 (181-426), 10 mM HEPES, pH 7.4, 150 mM NaCl, 0.05% Tween-20, and at the 1% DMSO (except for DMSO tolerance experiments, in which different DMSO concentrations were used as indicated). All plates measured in fluorescence polarization assays were incubated for a minimum of 30 min at RT. Fluorescence polarization was measured from the top of the well with a Tecan SPARK plate reader with polarized filters and optical modules for fluorescein (λex = 485 nm ± 25 nm, λem = 535 nm ± 25 nm). The standard error of the mean (SEM) values, were calculated by dividing the sample standard deviation by the square root of the sample size and are recorded as ± values for IC 50. Dose-dependent experiments were performed in th e same manner using at least 10 concentrations of the test compounds in 3 -fold serial dilutions from 100 µM. For each assay, negative controls (equivalent to 0% displacement) contained the fluorescent ligand, PHD2 (181 -426), and 20 µL FP buffer; blank cont rols contained only the fluorescent ligand and 40 µL buffer.
The reaction mixtures were incubated at RT for 60 min, then total fluorescence and fluorescence polarization measurements wer e taken. The percentage inhibition was calculated using Equation 1, where mPfree is the signal for the free probe (blank control) and mPbound is the signal for the bound probe (negative control).
IC50s were determined for duplicate measurements by non-linear least-squares analysis using GraphPad Prism 8.0.
The Ki values of the inhibitors were calculated using the Cheng-Prusoff equation.[5] Cheng-Prusoff equation: Ki = IC50 / (1 + [L]/Kd)
The Kd value was determined using a constant concentration of probe and titrating with PHD2 protein at increasing concentrations. [L] represents the concentration of the […] used in the FP assay. […]

[2] = test system: C57BL/6J mouse models of anemia induced by cisplatin; assay: Improvement of anemia induced by cisplatin administration; format: in vivo; settings: cisplatin-induced anemia mice, po, 20 mg·kg^-1
Description: 5. Pharmacodynamic assay
The experimental mice (SPF, […], male) were obtained from SPF (Beijing) Biotechnology Co., Ltd (permit number: SCXK (Jing) 2019-0010). All animal related experiments were conducted under a China Pharmaceutical University (the certification of using the housing facility of laboratory animals: SYXK (Su) 2018 -0019) IACUC approved protocol in compliance with the guide for the care and use of laboratory animals (number: 202013705). […]
Representative compounds and Roxadustat were formulated in normal saline solution. […]
China Pharmaceutical University (ADVIA 2120 hematology system). […]
5.3 Improvement of anemia induced by cisplatin administration
C57BL/6J mice were treated with cisplatin ( po, 7 mg·kg-1) on days 0, 7, 14, and 28 of the experiment. On the 29th day, the animals were randomized into sham, control, and treated groups (n=5). […]
treatment anemia caused by cisplatin. The mice were treated with the compounds every alternate day for 30 days. the test sample is obtained via orbital venous plexus. The hemoglobin of samples was analyzed in the center for new drug safety evaluation and research at China Pharmaceutical University (ADVIA 2120 hematology system).

T1 sequence (Q9GZT9 181-426): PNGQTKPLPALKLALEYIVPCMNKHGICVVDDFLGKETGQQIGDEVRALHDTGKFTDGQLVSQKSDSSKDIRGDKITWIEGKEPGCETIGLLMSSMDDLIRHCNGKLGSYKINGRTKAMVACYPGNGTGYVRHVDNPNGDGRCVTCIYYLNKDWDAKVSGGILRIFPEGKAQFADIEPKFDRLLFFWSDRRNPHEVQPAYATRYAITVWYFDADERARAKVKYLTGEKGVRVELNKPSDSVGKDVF

SMILES: O=C(N/N=C/c1ccccc1O)c1cnc(-c2ccccn2)[nH]c1=O [compound 8]
- Ki [1]: 639 ± 37 nM
- melting point: > 300 °C

SMILES: O=C(N/N=C/c1cc(O)ccc1O)c1cnc(-c2ccccn2)[nH]c1=O [compound 9]
- Ki [1]: 483 ± 9 nM
- melting point: > 300 °C

SMILES: O=C(N/N=C/c1cccc(O)c1Cl)c1cnc(-c2ccccn2)[nH]c1=O [compound 18]
- Ki [1]: 116 ± 5 nM
- melting point: > 300 °C

SMILES: Cc1nc(C(=O)NCC(=O)O)c(O)c2ccc(Oc3ccccc3)cc12 [Roxadustat, reference compound]
- Improvement of anemia (%) [2]: 48.5%

SMILES: O=C(O)c1ccc(/C=N/NC(=O)c2cnc(-c3ncccn3)[nH]c2=O)cc1 [compound 13]
- Ki [1]: 1050 ± 129 nM
- melting point: > 300 °C

SMILES: O=C(N/N=C/c1cccc(O)c1O)c1cnc(-n2cccn2)[nH]c1=O [compound 1]
- Ki [1]: 113 ± 5 nM
- melting point: > 300 °C

SMILES: O=C(O)c1ccccc1/C=N/NC(=O)c1cnc(-c2cccnn2)[nH]c1=O [compound 11]
- Ki [1]: 119 ± 9 nM

SMILES: O=C(N/N=C/c1cccc(O)c1O)c1cnc(-c2ncccn2)[nH]c1=O [compound 4]
- Ki [1]: 500 ± 16 nM
- melting point: > 300 °C

SMILES: O=C(N/N=C/c1cc(O)c(O)c(O)c1)c1cnc(-c2ccccn2)[nH]c1=O [compound 7]
- Ki [1]: 72 ± 5 nM
- melting point: > 300 °C

SMILES: O=C(N/N=C/c1cccc(Cl)c1O)c1cnc(-c2cccnn2)[nH]c1=O [compound 16]
- Ki [1]: 394 ± 17 nM
- melting point: > 300 °C

SMILES: O=C(O)c1cc(/C=N/NC(=O)c2cnc(-c3ccccn3)[nH]c2=O)ccc1O [compound 15]
- Ki [1]: 200 ± 8 nM
- melting point: > 300 °C

SMILES: O=C(N/N=C/c1ccc(O)c(O)c1)c1cnc(-c2ccccn2)[nH]c1=O [compound 6]
- Ki [1]: 2620 ± 103 nM
- melting point: 294.7 to 295.2 °C

SMILES: O=C(N/N=C/c1ccc(O)c(O)c1O)c1cnc(-c2ccccn2)[nH]c1=O [compound 10]
- Ki [1]: 130 ± 4 nM
- melting point: > 300 °C

SMILES: O=C(N/N=C/c1cccc(O)c1O)c1cnc(-n2cncn2)[nH]c1=O [compound 5]
- Ki [1]: 548 ± 32 nM
- melting point: > 300 °C

SMILES: O=C(N/N=C/c1cccc(O)c1O)c1cnc(-c2ccccn2)[nH]c1=O [compound 3]
- Ki [1]: 48 ± 4 nM
- melting point: > 300 °C

SMILES: O=C(O)c1ccc(/C=N/NC(=O)c2cnc(-c3ccccn3)[nH]c2=O)cc1 [compound 12]
- Ki [1]: 103 ± 4 nM
- melting point: > 300 °C

SMILES: O=C(O)c1cc(/C=N/NC(=O)c2cnc(-c3cccnn3)[nH]c2=O)ccc1O [compound 14]
- Ki [1]: 155 ± 18 nM
- melting point: > 300 °C

SMILES: O=C(N/N=C/c1cccc(O)c1O)c1cnc(-c2cccnn2)[nH]c1=O [compound 2]
- Ki [1]: 68 ± 6 nM
